From PMC3477139 (PLoS ONE, 2012)

What was measured:
human GLP-1R [1] = biological target: T1, human GLP-1R (Homo sapiens, UniProt P43220); experiment: cAMP generation by membranes from HEK-GLP-1R cells; type: biochemical; conditions: 5 min, 30°C, IBMX
T1 construct: expressed in transfected cells; vector pcDNA5/FRT
Description: (§1) The cAMP was extracted from either intact cell or membrane preparations using a method identical to that for extraction of Ins(1,4,5)P3 [22]. Levels of cAMP were then determined by a competitive radioreceptor assay using binding protein purified from bovine adrenal glands and related to cellular protein assessed by Bradford assay.
(§2) Concentration-response curves were fitted using GraphPad Prism (GraphPad Software Inc., CA) using a standard four parameter logistic equation. All data are representative of n≥3 or are presented as mean+/±s.e.m., where n = 3 unless otherwise stated. Statistical analysis was by oneway ANOVA and where P<0.05, followed by Bonferroni's or Dunnett's multiple range test as indicated. Alternatively analysis was performed by Student's t-test. Where potency estimates are given these are pEC50 values (−log10 of the molar concentration giving 50% of the maximal response).

β2-adrenoceptors = experiment: cAMP accumulation via β2-adrenoceptors in HEK-GLP-1R cells; type: cell-based
Description: Ligands or vehicle control (40 µl) were added and reactions terminated after the appropriate times by replacement of the aqueous phase with ice-cold 0.5 M trichloroacetic acid. […] Reactions were terminated as above.
as §1
All data are mean±/+s.e.m., n = 3–4, *** P<0.001 and ** P<0.01 by Bonferroni's multiple range test. For clarity only differences between ‘numerical’ and ‘co-addition’ conditions are shown.

human GLP-1R [2] = biological target: T1, human GLP-1R; experiment: Intracellular Ca2+ signaling in fluo-4-loaded HEK-GLP-1R cells; type: cell-based
Description: as §2

human GLP-1R [3] = biological target: T1, human GLP-1R; experiment: ERK activation (phospho-ERK Western blot) in HEK-GLP-1R cells; type: cell-based; conditions: compound 2 10 µM, 5 min
Description: as §2

GLP-1R = conditions: cited from earlier work
Description: Such proteolysis is thought to remove biological activity.

wild-type HEK293 cells = experiment: ERK activation in wild-type HEK293 cells; type: cell-based; conditions: data not shown
Description: Cells grown to confluence on 24-well plates pre-coated with poly-D-lysine (0.1% w/v) were washed and equilibrated in KHB at 37°C (400 µl). Cells were challenged at 37°C in 400 µl KHB-BSA and reactions terminated by replacement of buffer with 100 µl ice-cold Laemmli sample buffer (62.5 mM Tris-HCl, pH 6.8, 2% w/v SDS, 10% v/v glycerol, 50 mM DTT and 0.1% bromophenol blue). Proteins (∼30 µg) were separated by 12% SDS-PAGE, transferred onto polyvinylidene fluoride membranes, blocked for 1 h in 5% (w/v) skimmed milk powder in TTBS (150 mM NaCl, 50 mM Tris, pH 7.5, 0.1% Tween-20) and incubated overnight at 4°C with anti-phospho-ERK antibody (1∶2000) or anti-S6 antibody (1∶20,000) in 3% BSA in TTBS. Blots were washed (3×10 min) in TTBS and incubated for 1 h with anti-mouse HRP conjugated secondary antibody (1∶1000 in blocking buffer). After washing in TTBS (3×10 min), blots were exposed to ECL detection reagents (Uptima-Interchim, Montlucon, France) according to the manufacturer's guidelines and bands visualised using Kodak Medical X-ray film (Wolf Laboratories Ltd, Pocklington, U.K.). The intensities of the immunoblot bands were determined using ImageJ.

[4] = biological target: T2, GLP-1R (native, rat insulinoma cell line INS-1E) (Rattus norvegicus, UniProt P32301); experiment: ERK activation (phospho-ERK Western blot) in INS-1E cells; type: cell-based; conditions: single ligands, 5 min; much lower concentrations of GLP-1 7–36 amide required
T2 construct: the rat insulinoma cell line, INS-1E, with native expression of the GLP-1R; endogenous in cells; host or cells: INS-1E rat insulinoma cells (gift of Prof. C.B. Wollheim)
T2 sequence (P32301 22-463): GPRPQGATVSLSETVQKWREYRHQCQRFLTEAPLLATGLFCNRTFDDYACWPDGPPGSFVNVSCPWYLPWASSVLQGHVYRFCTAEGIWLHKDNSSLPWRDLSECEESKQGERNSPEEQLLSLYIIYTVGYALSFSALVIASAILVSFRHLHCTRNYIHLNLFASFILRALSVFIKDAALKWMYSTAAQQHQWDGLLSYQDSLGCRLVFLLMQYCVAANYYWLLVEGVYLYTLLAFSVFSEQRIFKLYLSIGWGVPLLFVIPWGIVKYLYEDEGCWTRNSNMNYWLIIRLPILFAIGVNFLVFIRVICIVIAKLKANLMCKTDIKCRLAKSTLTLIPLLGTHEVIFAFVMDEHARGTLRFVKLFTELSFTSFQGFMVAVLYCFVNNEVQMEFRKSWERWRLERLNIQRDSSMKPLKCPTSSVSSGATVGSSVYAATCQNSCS
Description: HEK-Flp-In cells with stable recombinant expression of the human GLP-1R (HEK-GLP-1R) were cultured in DMEM with high glucose supplemented with 10% FBS, 100 µg/ml streptomycin and 100 units/ml penicillin sulphate. These cells were originally generated by transfection of HEK-Flp-In cells (Invitrogen: Paisley, U.K.) with pcDNA5/FRT containing the human GLP-1R. […] INS-1E cells were kindly provided by Prof. C.B. Wollheim of the University of Geneva, Switzerland [19]. These cells were used between passages 65–90 and cultured in RPMI media containing 11.1 mM glucose, 5% heat-inactivated FBS, 100 µg/ml streptomycin, 100 units/ml penicillin sulphate, 100 units/ml neomycin, 50 µM β-mercaptoethanol, 10 mM HEPES and 1 mM sodium pyruvate. All cells were cultured at 37°C in a 5% CO2 humidified atmosphere and passaged at confluence.
as §2

T1 sequence (P43220 24-463): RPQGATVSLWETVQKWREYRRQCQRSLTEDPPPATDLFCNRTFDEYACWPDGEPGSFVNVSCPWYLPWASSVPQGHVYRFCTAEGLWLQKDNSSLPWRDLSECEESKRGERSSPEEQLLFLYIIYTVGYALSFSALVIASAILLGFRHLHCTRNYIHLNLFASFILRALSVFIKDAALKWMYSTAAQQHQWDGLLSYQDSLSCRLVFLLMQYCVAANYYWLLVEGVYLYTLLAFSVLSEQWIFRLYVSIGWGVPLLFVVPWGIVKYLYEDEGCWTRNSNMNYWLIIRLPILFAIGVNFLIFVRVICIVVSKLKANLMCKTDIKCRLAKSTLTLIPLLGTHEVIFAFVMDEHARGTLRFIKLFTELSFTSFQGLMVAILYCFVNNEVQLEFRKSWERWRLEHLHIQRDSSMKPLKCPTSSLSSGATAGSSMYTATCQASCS

## CC(C)(C)Nc1nc2cc(Cl)c(Cl)cc2nc1S(C)(=O)=O [compound 2, 6,7-dichloro-2-methylsulfonyl-3-N-tert-butylaminoquinoxaline]
Human GLP-1R [1]
  cAMP response in membranes (in words): enhanced the ability of GLP-1 9–36 amide to increase cAMP
Human GLP-1R [1]; compound 2 alone, 3 µM, mean±s.e.m., n = 3
  cAMP level (membranes): 2623±269 pmol/mg protein
β2-adrenoceptors; Figure 3D
  effect on cAMP generation by the β-adrenoceptor: inability of compound 2 to influence cAMP generation
β2-adrenoceptors; isoproterenol (100 µM) + compound 2 (1 µM), IBMX, 5% DMSO
  cAMP accumulation on co-stimulation with isoproterenol and compound 2 versus numerical sum: only equivalent to the numerical addition of responses to the two ligands when used alone
Human GLP-1R [2]; compound 2, 10 µM
  fluorescence change sensitive to thapsigargin: did not cause an appreciable, thapsigargin-sensitive increase in fluorescence
Human GLP-1R [2]; compound 2, 100 µM, with/without thapsigargin (2 µM, 5 min)
  fluorescence change sensitive to thapsigargin: a proportion of the change in fluorescence in response to compound 2 was blocked by thapsigargin
Human GLP-1R [3]
  ERK activation: response equivalent to the maximally effective concentration of GLP-1 7–36 amide (10 nM)
GLP-1R; ago-allosteric modulator, ref [15]
  effect at the GLP-1R (in words): not only enhancing affinity of the GLP-1R for GLP-1 but providing effective direct agonism
GLP-1R; ref [7], [15]
  effect on affinity for GLP-1 and on its potency or intrinsic activity: modestly increases the affinity for GLP-1 it has little impact on potency or intrinsic activity
GLP-1R; ref [16]
  interaction of compound 2 and GLP-1 7–36 amide on ERK activation: lack of interaction between compound 2 and GLP-1 7–36 amide on ERK activation
wild-type HEK293 cells
  ERK activation in wild-type HEK293 cells: Neither GLP-1 9–36 amide, GLP-1 7–36 amide nor compound 2 increased ERK activation
[4]
  ERK activation (INS-1E): robust and approximately equivalent activation of ERK
